Key:
MRSE 51625 = assay: Viable plate count, resistant bacteria, protocol of Example 1
Experimental: (§1) A portion of 0.05 ml of each dilution was added to 0.95 ml of bacterial culture (trypticase soy broth containing 10^6 CFU/ml).
MRSA used are MRSA-002 and MRSA-006.

MRSA-002 = assay: as above
Experimental: as §1
MRSA used are MRSA-002 and MRSA-006.

MRSE 700563 [1] = assay: Zone of inhibition of treated Nu-Gel hydrogel squares on inoculated TSA agar
Experimental: (§2) The zone of inhibition, which is defined as the average distance in millimeter from four edges of the square and four edges of the clear zone around the square, was measured.

MRSA-006 = assay: Viable plate count, resistant bacteria, protocol of Example 1
Experimental: as §1
MRSA used are MRSA-002 and MRSA-006.

MRSE 700563 [2] = assay: as above
Experimental: as §1
MRSA used are MRSA-002 and MRSA-006.

MRSA 006 = assay: Zone of inhibition of treated Nu-Gel hydrogel squares on inoculated TSA agar
Experimental: as §2

| Compound | CFU/ml MRSE 51625 (MRSE 51625; 100 ppm) | CFU/ml MRSA-002 (MRSA-002; 100 ppm) | Zone of inhibition (mm) MRSE 700563 (MRSE 700563 [1]; 60 ug/cm^2, 48 hours at 37° C.) [mm] | CFU/ml MRSA-006 (MRSA-006; 100 ppm) | CFU/ml MRSE 700563 (MRSE 700563 [2]; 100 ppm) | Zone of inhibition (mm) MRSA 006 (MRSA 006; 60 ug/cm^2, 48 hours at 37° C.) [mm] | CFU/ml MRSE 51625 (MRSE 51625; 5 ppm) | CFU/ml MRSA-002 (MRSA-002; 5 ppm) | Zone of inhibition (mm) MRSE 700563 (MRSE 700563 [1]; 6 ug/cm^2, 48 hours at 37° C.) [mm] | CFU/ml MRSA-006 (MRSA-006; 5 ppm) | CFU/ml MRSE 700563 (MRSE 700563 [2]; 5 ppm) | Zone of inhibition (mm) MRSA 006 (MRSA 006; 6 ug/cm^2, 48 hours at 37° C.) [mm] |
| --- | --- | --- | --- | --- | --- | --- | --- | --- | --- | --- | --- | --- |
| Cc1nnc(SCC2=C(C(=O)O)N3C(=O)[C@@H](NC(=O)Cn4cnnn4)[C@H]3SC2)s1 [Cefazolin (CF), Cefazolin] | 1.5 × 10^6 CFU/ml | 1.1 × 10^9 CFU/ml | 0 | 1.4 × 10^5 CFU/ml | 1.5 × 10^8 CFU/ml | 0 | – | – | – | – | – | – |
| CCCCCCCCCCCC(=O)N[C@@H](CCCN=C(N)N)C(=O)OCC.Cl [LAE, ethyl ester of the lauramide of the arginine monohydrochloride] | – | – | – | – | – | – | 1.2 × 10^9 CFU/ml | 5.0 × 10^6 CFU/ml | 0 | 6.2 × 10^8 CFU/ml | 4.0 × 10^8 CFU/ml | 0 |
| Polymixin B [Polymixin B (PY)] | 6.2 × 10^8 CFU/ml | 1.2 × 10^9 CFU/ml | 0 | 1.2 × 10^9 CFU/ml | 1.2 × 10^9 CFU/ml | 0 | – | – | – | – | – | – |
